Experiment [1] has as its system HIV-1 isolates of all subtypes (subtypes A, B, C, and E). Briefly: p24 assay, PHA-PBMs, panel of HIV-1 isolates of subtypes A, B, C, and E. It counts as cell-based. As to conditions: Human immunodeficiency virus 1, read-out: IC50 against HIV-1 isolates of subtypes A, B, C, and E. Here is the method: (§1) Drug susceptibility assay. The susceptibility of HIV-1LAI, HIV-2EHO, HIV-2ROD, to various drugs and the cytotoxicity of those drugs was determined by using the MTT assay. Briefly, MT-2 cells (2×10^4/mL) were exposed to 100 TCID50s (50% tissue culture infectious doses) of HIV-1LAI, HIV-2EHO, or HIV-2ROD in the presence or absence of various concentrations of drugs in 96-well microculture plates and were incubated at 37° C. for 7 days. After 100 μL of the medium was removed from each well, 3-(4,5-dimethylthiazol-2-yl)-2,5-diphenyltetrazolium bromide (MTT) solution (10 μL, 7.5 mg/mL in phosphate-buffered saline) was added to each well in the plate, followed by incubation at 37° C. for 4 hours. […] All assays were performed in duplicate or triplicate. […] On day 7 of culture, the supernatant was harvested and the amount of p24 Gag protein was determined by using a fully automated chemiluminescent enzyme immunoassay system (Lumipulse F; Fujirebio Inc., Tokyo, Japan) (22). […]
The IC50 values were determined by using PHA-PBMs as target cells and the inhibition of p24 Gag protein production by each drug was used as an endpoint. […]

Experiment [2] has as its system HIV-2 strains (HIV-2EHO and HIV-2ROD). Nature of the experiment: MTT assay, MT-2 cells, HIV-2 strains compared with HIV-1LAI. In kind it is cell-based. Here is the method:
as §1
(In general: Formazan colour is commonly taken as a measure of viable cells.)

Here are results for 1 compound from patent publication US9808527B2, “Methods and compositions for treating HIV infections” (priority 2006, dated 2017).

The IC50 is the concentration that inhibits the measured activity by half. Take `CC(C)CN(CC(O)C(Cc1ccccc1)NC(=O)OC1COC2OCCC12)S(=O)(=O)c1ccc2c(c1)OCO2` (centres unmarked) [GRL-98065]: the IC50 in experiment [1] lay within 0.2 to 0.5 nM. Besides, the “factor by which potency against HIV-2 strains is less than against HIV-1LAI” value in experiment [2] is 6-9.
